Reference: patent US7560117B2, “Foamy virus mutant reverse transcriptase” (priority 2001, dated 2009)

Legend:
HIV-1 RT = HIV-1 RT (Human immunodeficiency virus type 1 group M subtype B, UniProt P03366); assay: 3TCTP inhibition assay, M13 template, radiolabeled dCTP incorporation; details: 1.0 μM 3TCTP; activity without drug set at 100%
Experimental: The 3TCTP inhibition assays were performed using the M13 template and the −47 primer. The −47 sequencing primer was annealed to the single stranded M13mp18 DNA by heating to 95° C. and slowly cooling to room temperature. The template-primer was extended by adding 1.0 μg of RT in 25 mM Tris(pH 8.0), 75 mM KCl, 8.0 mM MgCl2, 100 μg/ml BSA, 10 mM CHAPS, 10 μM each of dATP, dGTP, and dTTP, 2.0 μM [α-^32P]dCTP, and the indicated concentrations of 3TCTP (Moravek Biochemicals, Brea, Calif.) in a 100 μl reaction volume. The mixture was incubated at 37° C. for 30 min, then halted by the addition of 3 ml of ice-cold trichloroacetic acid (TCA) and the precipitated DNA was collected by suction filtration through Whatman GF/C glass filters. The amount of incorporated radioactivity was determined by liquid scintillation counting.
Samples were TCA precipitated, bound to glass filters, and incorporation of radiolabeled dCTP was measured. […] These levels of RT activity in the absence of drug were set at 100% activity for each recombinant RT.

PFV [1] = details: previous studies; cited from earlier work
PFV [2] = details: virus producing cells treated with inhibitor
PFV [3] = type: cell-based, Prototype Foamy Virus (SFVcpz(hu))

Row | SMILES | specific inhibition of production of infectious PFV particles (PFV [1]) | other results
1 | Nc1ccn([C@@H]2CS[C@H](COP(=O)(O)OP(=O)(O)OP(=O)(O)O)O2)c(=O)n1 [3TCTP] |  | activity retained by HIV-1 RT (HIV-1 RT): 37%
2 | Nc1ccn([C@@H]2CS[C@H](CO)O2)c(=O)n1 [3TC] | not | 
3 | Cc1cn([C@H]2C[C@H](N=[N+]=[N-])[C@@H](CO)O2)c(=O)[nH]c1=O [AZT] | specific inhibition was demonstrated | specific decrease in infectivity (PFV [2]): greater than 10 fold
4 | Nc1nc(=O)n(C2CSC(CO)O2)cc1F (stereo not drawn) [FTC, beta-2′,3′-dideoxy-5-fluoro-3′-thiacytidine] |  | Titer Relative to No-Drug Control, Pretreated (PFV [3]): 122
5 | O=c1[nH]cnc2c1ncn2[C@H]1CC[C@@H](CO)O1 [ddI] | not | 
